Measurements: paper PMC10582333 (Frontiers in Pharmacology, 2023)
Read-outs that look alike come from different tables or passages of the source. Each block holds one compound with its values, some of them ahead of it.

Columns and labels:
[1] = tested on: castration-resistant prostate cancer (CRPC); conditions: cited from earlier work
glucocorticoid receptor [2] = biological target: T1, glucocorticoid receptor (Homo sapiens, UniProt P04150); assay: AR (ARE) luciferase reporter assay, PC3 cells (no ligand or DEX, GR-driven); assay type: cell-based; set-up: PC3 cells that only express GR and respond solely to DEX; endogenous in cells; host or cells: PC3; conditions: 24 h
T1 sequence (P04150 1-777): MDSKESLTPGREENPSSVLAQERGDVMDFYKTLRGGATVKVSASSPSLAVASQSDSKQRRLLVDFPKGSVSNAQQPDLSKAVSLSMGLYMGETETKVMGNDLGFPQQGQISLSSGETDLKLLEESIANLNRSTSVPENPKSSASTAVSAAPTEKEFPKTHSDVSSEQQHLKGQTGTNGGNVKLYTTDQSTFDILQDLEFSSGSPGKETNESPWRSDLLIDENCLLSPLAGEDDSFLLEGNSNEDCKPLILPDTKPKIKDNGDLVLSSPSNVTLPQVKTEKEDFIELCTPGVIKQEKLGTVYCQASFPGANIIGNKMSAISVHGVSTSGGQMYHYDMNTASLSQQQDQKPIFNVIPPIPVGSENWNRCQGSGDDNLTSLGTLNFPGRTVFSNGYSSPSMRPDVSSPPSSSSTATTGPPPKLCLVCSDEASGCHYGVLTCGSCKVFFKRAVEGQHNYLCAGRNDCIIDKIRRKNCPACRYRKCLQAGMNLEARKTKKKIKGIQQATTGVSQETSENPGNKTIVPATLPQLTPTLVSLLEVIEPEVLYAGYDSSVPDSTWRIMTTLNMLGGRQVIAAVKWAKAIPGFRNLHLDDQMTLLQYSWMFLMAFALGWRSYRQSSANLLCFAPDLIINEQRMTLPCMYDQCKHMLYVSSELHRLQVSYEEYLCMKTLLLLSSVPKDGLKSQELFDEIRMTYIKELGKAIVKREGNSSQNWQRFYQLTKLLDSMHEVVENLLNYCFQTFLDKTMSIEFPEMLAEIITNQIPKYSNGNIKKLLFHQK
Experimental: (§1) The 22RV1, LNCaP and PC3 cell lines were stably transfected with a PGL4.2 luciferase reporter (Promega, Madison, USA). This reporter contains a sequence (3xgtaattgcagaacagcaagtgctagctctc) representing the wild type of Androgen Response Element (ARE) derived from the Prostate-Specific Antigen (PSA) promoter. […] This transfection was accomplished using Lipofectamine 3000 (Thermo Fisher Scientific, Waltham, MA). Stable clones were selected and maintained with puromycin (0.5 μg/mL). […] The pcDNA5 plasmid (Thermo Fisher Scientific, Waltham, MA), carrying the full open reading frame of GR, was transfected into LNCaP cells, and hygromycin (50 μg/mL) was employed to select and maintain stable clones.
(§2) 10^4 reporter cells per well of 96-well plate were seeded in RPMI1640 media supplemented with 5% dialysis activated carbon treated FBS, 50 μg/mL Kanamycin in a 37°C, 5% CO2 incubator for 48 h. Cells were treated with herbal extracts at 30, 100, 300, and 600 μg/mL for 24 h in a 37°C-CO2 incubator. […] Dexamethasone (50 nM) was used to stimulate glucocorticoid receptor activity. Cells were lysed using luciferase lysis buffer after which luciferase buffer with luciferin was added to generate luminescence. Luminescence was recorded using a luminescence microplate reader. The IC50 is the concentration of treatment agent required to reduce the measured luminescence to half of its maximal value.
(§3) GAPDH was used as protein loading control for normalization. […] Details of experimental procedures are given in Materials and methods.

glucocorticoid receptor [3] = biological target: T1, glucocorticoid receptor; assay: AR (ARE) luciferase reporter assay, 22RV1 cells with DEX (GR-driven); assay type: cell-based; set-up: AR luciferase reporter assay using 22RV1 cells that express GR; endogenous in cells; host or cells: 22RV1
Experimental: as §1, §2, §3

22RV1 tumor = assay: 22RV1 xenograft tumor growth in NCR-nude mice; assay type: in vivo, human; conditions: enzalutamide alone, 5 mg/kg po QD, 7 days
Excerpt: Differences were considered statistically significant at p < 0.05.

glucocorticoid receptor [4] = biological target: T1, glucocorticoid receptor; assay: AR (ARE) luciferase reporter assay, LNCaP-GR cells with DEX (GR-driven); assay type: cell-based
Experimental: as §1, §2, §3

androgen receptor [5] = biological target: T2, androgen receptor (Homo sapiens, UniProt P10275, T878A); assay: AR (ARE) luciferase reporter assay, LNCaP cells (no ligand or DHT); assay type: cell-based
T2 construct: LNCaP cells that only express AR and respond solely to DHT; endogenous in cells; host or cells: LNCaP; LNCaP-GR
T2 sequence (P10275 1-920 T878A): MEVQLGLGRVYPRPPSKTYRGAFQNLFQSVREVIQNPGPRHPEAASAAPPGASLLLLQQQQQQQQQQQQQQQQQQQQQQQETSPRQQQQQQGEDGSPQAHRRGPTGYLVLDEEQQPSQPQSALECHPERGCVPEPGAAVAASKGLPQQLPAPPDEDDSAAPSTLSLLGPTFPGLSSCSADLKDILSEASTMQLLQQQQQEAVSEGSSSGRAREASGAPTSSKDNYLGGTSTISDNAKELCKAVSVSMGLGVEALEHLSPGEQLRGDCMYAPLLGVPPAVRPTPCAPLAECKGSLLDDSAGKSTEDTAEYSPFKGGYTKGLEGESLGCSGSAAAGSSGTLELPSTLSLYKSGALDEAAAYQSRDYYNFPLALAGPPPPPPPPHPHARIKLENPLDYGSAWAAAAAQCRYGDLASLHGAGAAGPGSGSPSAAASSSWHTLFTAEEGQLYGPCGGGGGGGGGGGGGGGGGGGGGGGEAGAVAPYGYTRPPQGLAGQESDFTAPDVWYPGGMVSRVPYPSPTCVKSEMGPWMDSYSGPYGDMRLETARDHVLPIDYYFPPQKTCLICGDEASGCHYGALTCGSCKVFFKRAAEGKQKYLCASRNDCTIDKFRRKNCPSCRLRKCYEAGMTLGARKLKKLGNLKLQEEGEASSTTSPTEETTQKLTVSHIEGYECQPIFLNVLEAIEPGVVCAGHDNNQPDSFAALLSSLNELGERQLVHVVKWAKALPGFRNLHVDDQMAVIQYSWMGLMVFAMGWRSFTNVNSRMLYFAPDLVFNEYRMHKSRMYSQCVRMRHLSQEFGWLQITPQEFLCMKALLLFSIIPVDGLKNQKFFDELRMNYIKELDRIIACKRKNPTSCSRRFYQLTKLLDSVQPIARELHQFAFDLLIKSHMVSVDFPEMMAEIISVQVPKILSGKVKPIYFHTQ
Experimental: as §1, §2, §3

androgen receptor [6] = biological target: T2, androgen receptor; assay: cell-based
Experimental: as §1, §2, §3

androgen receptor [7] = biological target: androgen receptor (Homo sapiens, UniProt P10275); assay type: cell-based
androgen receptor (Homo sapiens, UniProt P10275), sequence (P10275 whole entry): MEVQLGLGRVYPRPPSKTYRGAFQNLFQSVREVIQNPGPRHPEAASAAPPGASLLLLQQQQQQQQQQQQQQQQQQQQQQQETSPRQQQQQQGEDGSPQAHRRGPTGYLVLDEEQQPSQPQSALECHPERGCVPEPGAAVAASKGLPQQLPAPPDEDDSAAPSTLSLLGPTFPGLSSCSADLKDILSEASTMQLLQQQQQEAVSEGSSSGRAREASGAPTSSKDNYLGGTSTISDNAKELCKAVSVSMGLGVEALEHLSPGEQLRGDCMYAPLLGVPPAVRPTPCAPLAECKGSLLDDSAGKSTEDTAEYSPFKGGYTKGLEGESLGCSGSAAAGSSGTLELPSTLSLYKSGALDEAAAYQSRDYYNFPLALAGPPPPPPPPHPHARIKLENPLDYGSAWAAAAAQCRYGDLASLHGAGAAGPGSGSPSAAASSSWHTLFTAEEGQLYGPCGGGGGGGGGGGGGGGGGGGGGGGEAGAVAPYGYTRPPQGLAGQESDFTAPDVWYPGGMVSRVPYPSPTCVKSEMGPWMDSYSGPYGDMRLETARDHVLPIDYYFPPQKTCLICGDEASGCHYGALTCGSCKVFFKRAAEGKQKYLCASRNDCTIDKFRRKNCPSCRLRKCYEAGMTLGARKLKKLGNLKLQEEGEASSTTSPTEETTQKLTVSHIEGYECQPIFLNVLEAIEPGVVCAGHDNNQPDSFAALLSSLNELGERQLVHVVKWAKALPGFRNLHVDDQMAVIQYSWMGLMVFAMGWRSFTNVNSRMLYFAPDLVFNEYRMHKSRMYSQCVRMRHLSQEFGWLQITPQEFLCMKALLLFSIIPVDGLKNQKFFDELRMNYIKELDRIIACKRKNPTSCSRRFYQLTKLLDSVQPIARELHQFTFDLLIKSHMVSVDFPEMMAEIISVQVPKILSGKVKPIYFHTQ
Experimental: as §1
as §2, with “value. […]” for “value.”

[8] = ref Rice et al., 2019; cited from earlier work
Excerpt: Prostate cancer is the second leading cause of cancer death among men in the United States. According to the National Cancer Institute over 3 million men in the United States are living with prostate cancer, with 288,300 additional cases and 34,700 deaths expected in 2023. Androgen receptor (AR) signaling plays a key role in development of Benign prostatic hyperplasia (BPH) and prostate cancer ([Shiota et al., 2011]; [Gioeli and Paschal, 2012]; [Mills, 2014]; [Wong et al., 2014]; [Tan et al., 2015]). Therefore, androgen or Androgen R targeted therapy has become a major focus for the prevention ...

AR = tested on: AR; set-up: method as in Rice et al., 2019; conditions: ref Rice et al., 2019; cited from earlier work
Excerpt: Prostate cancer is the second leading cause of cancer death among men in the United States. […] Therefore, androgen or Androgen R targeted therapy has become a major focus for the prevention ...

[9] = tested on: de novo protein synthesis; set-up: method as in Zalacain et al., 1982; Chan et al., 2004; Keysar et al., 2020; conditions: ref Zalacain et al., 1982; Chan et al., 2004; Keysar et al., 2020; cited from earlier work
[10] = of patients, ref Cattrini et al., 2022
[11] = IC50 for ARE-luciferase reporter, ligand: -
[12] = IC50 for ARE-luciferase reporter, ligand: DEX (50 nM)
[13] = IC50 for ARE-luciferase reporter
[14] = read-out: IC50 for ARE-luciferase reporter

inhibition of DEX-induced luciferase activity (glucocorticoid receptor [2]; DEX 50 nM): no effect
inhibition of DEX-induced luciferase activity (glucocorticoid receptor [4]; LNCaP-GR, DEX 50 nM, 24 h): no effect
Compound: CNC(=O)c1ccc(N2C(=S)N(c3ccc(C#N)c(C(F)(F)F)c3)C(=O)C2(C)C)cc1F [Enzalutamide]
grade 3 adverse events or higher [1, 10]: approximately 25%
most common side effects ([1]; ref Cattrini et al., 2022): fatigue, hypertension, diarrhea, and weight loss
inhibition of Dex-induced luciferase activity (glucocorticoid receptor [3]; 22RV1, DEX 50 nM, 24 h): unable to inhibit GR-mediated luciferase activity
22RV1 tumor growth (22RV1 tumor): not found to substantially decrease the growth of 22RV1 tumors

Compound: COc1ccc(C[C@H]2C(=O)N[C@@H](C)C(=O)N(C)[C@H]3Cc4ccc(cc4)Oc4cc(ccc4O)C[C@@H](C(=O)N[C@H](C)C(=O)N[C@@H](C)C(=O)N2C)N(C)C3=O)cc1 [RA-V, Deoxybouvardin]
IC50 (androgen receptor [5]; LNCaP, ligand: +DHT (25 nM), 24 h, read-out: IC50 for ARE-luciferase reporter): 5.3 ± 1.4 nM
IC50 (androgen receptor [5]; LNCaP, ligand: -, 24 h, read-out: IC50 for ARE-luciferase reporter): > 100 nM
IC50 (glucocorticoid receptor [2]; ligand: -, read-out: IC50 for ARE-luciferase reporter): 40 ± 19 nM
IC50 (glucocorticoid receptor [2]; ligand: DEX (50 nM), read-out: IC50 for ARE-luciferase reporter): 5.7 ± 2.3 nM
IC50 (glucocorticoid receptor [3]; 22RV1, ligand: +DEX (50 nM), 24 h, read-out: IC50 for ARE-luciferase reporter): 22 ± 5 nM
IC50 (androgen receptor [6]; LNCaP-GR, ligand: +DHT (25 nM), 24 h, read-out: IC50 for ARE-luciferase reporter): 4.1 ± 1.3 nM
IC50 (androgen receptor [6]; LNCaP-GR, ligand: -, 24 h, read-out: IC50 for ARE-luciferase reporter): > 100 nM
IC50 (glucocorticoid receptor [4]; LNCaP-GR, ligand: +DEX (50 nM), 24 h, read-out: IC50 for ARE-luciferase reporter): 7.8 ± 2.2 nM

Compound: COc1ccc(C[C@H]2C(=O)N[C@@H](C)C(=O)N(C)[C@H]3Cc4ccc(cc4)Oc4cc(ccc4OC)C[C@@H](C(=O)N[C@H](C)C(=O)N[C@@H](C)C(=O)N2C)N(C)C3=O)cc1 [RA-VII]
IC50 (glucocorticoid receptor [2]; [11]): 32 ± 9 nM
IC50 (glucocorticoid receptor [2]; [12]): 3.6 ± 0.6 nM
IC50 (glucocorticoid receptor [3]): 13.5 ± 5 nM
IC50 (glucocorticoid receptor [4]): 5.6 ± 2.3 nM

Compound: COc1ccc(C[C@H]2C(=O)N[C@@H](C)C(=O)N(C)[C@H]3Cc4ccc(cc4)Oc4cc(ccc4O)C[C@@H](C(=O)N[C@H](C)C(=O)N[C@@H](CCC(=O)O)C(=O)N2C)N(C)C3=O)cc1 [RA-XI]
comparative potency (anti-AR and anti-GR activity) (androgen receptor [7]): significantly reduce the anti-AR and anti-GR activity
inhibition of luciferase activity in any assay (androgen receptor [7]): did not inhibit luciferase activity in any assay
IC50 (androgen receptor [5]; [13]): > 250 nM
IC50 (androgen receptor [5]; [14]): > 250 nM
IC50 (glucocorticoid receptor [2]; [11]): > 250 nM
IC50 (glucocorticoid receptor [2]; [12]): > 250 nM
IC50 (glucocorticoid receptor [3]): > 250 nM
IC50 (androgen receptor [6]; [13]): > 250 nM
IC50 (androgen receptor [6]; [14]): > 250 nM
IC50 (glucocorticoid receptor [4]): > 250 nM

Compound: CNC(=O)c1ccc(N2C(=S)N(c3cnc(C#N)c(C(F)(F)F)c3)C(=O)C23CCC3)cc1F [apalutamide]
grade 3 adverse events or higher [1, 10]: approximately 25%
most common side effects ([1]; ref Cattrini et al., 2022): fatigue, hypertension, diarrhea, and weight loss
brain penetrance [8]: reductions in brain penetrance
selectivity and potency against AR (AR): higher selectivity and potency against AR

Compound: CC(O)c1cc(C(=O)N[C@@H](C)Cn2ccc(-c3ccc(C#N)c(Cl)c3)n2)[nH]n1 (stereo partly shown) [darolutamide]
grade 3 adverse events or higher ([1]; human, in vivo): approximately 25%
most common side effects ([1]; human, in vivo): fatigue, hypertension, diarrhea, and weight loss
brain penetrance [8]: reductions in brain penetrance
selectivity and potency against AR (AR): higher selectivity and potency against AR

Compound: Bouvardin
inhibition of de novo protein synthesis [9]: can inhibit de novo protein synthesis
